Key:
[1] = tested on: cells that expressed γ-Syn; assay: MTT cell death assay in cells that express γ-Syn; assay type: cell-based
Source text: Cells were selected that expressed γ-Syn.

[2] = tested on: T47D cells; assay: MTT cell viability assay in T47D breast cancer cells
[3] = tested on: WKY rats; assay: Depression model, behavior of WKY rats; assay type: in vivo, rat; conditions: for mobility and climbing behaviors: WKY rats, chronic administration, FIG. 1
[4] = tested on: γ-Syn; assay: γ-Syn expression in pancreatic cancer (PC) cells; assay type: cell-based; conditions: clinically relevant concentrations
[5] = tested on: ASPC-1; assay: MTT cell viability assay in ASPC-1 pancreatic cancer cells; assay type: cell-based; conditions: Homo sapiens, ASPC1; ASPC-1 cells; read-out: IC50 values of cell death
[6] = tested on: cells that did not express any γ-Syn; assay: MTT cell death assay in cells that do not express γ-Syn; assay type: cell-based; conditions: cells without γ-Syn expression, 50 μM DMI
[7] = tested on: γ-Syn; assay: Western blot of γ-Syn levels in T47D cells; assay type: cell-based; conditions: for decrease of γ-Syn levels: 48 h pretreatment, Western blot
Procedure: Various cancer cell lines were tested for expression of γ-Syn by Western blots. (FIG. 4) Two breast carcinoma cell lines were tested for γ-Syn expression by Western blots, and human brain (hIFG) was used as a positive control.

[8] = tested on: γ-Syn; assay: Western blot of γ-Syn protein in brain of WKY rats; assay type: in vivo, rat; conditions: brains of WKY rats, FIG. 3
Source text: In brain, γ-Syn is expressed in presynaptic terminals of monoaminergic neurons, and our lab has shown that this protein can regulate the function of norepinephrine and serotonin transporters. Unlike α-Syn, whose role in neurodegenerative diseases such as Parkinson's disease is well established, a role for γ-Syn in neurodegeneration is not known. γ-Syn is overexpressed in the frontal cortex of the WKY, a rat model of depression. […] The ability of γ-Syn to bind tightly to MTs may be one mechanism by which its overexpression in carcinomas protects cells from the MT actions of chemotherapeutic agents, for example, taxol, nocodazole, vinblastine and colchicine.

[9] = tested on: γ-Syn; conditions: rat depression model, Jeannotte et al. 2009; cited from earlier work
[10] = tested on: WKY rats; conditions: rat depression model, Jeannotte et al. 2009; cited from earlier work
[11] = tested on: DU145; assay: MTT cell viability assay in DU145 cells; assay type: cell-based; conditions: Homo sapiens, DU-145, read-out: IC50 values of cell death
[12] = tested on: HT-29; assay: MTT cell viability assay in HT-29 cells; assay type: cell-based; conditions: Homo sapiens, read-out: IC50 values of cell death
[13] = tested on: γ-Syn; assay: γ-Syn protein expression in selected γ-Syn expressing cells; assay type: cell-based; conditions: 48 h
Source text: Cells were selected that expressed γ-Syn. […] We next measured cell death by MTT assays and found a direct correlation between loss of γ-Syn protein expression and cell death.

[14] = tested on: HeLa; assay: MTT cell viability assay in HeLa cells; assay type: cell-based; conditions: Homo sapiens, read-out: IC50 values of cell death
[15] = tested on: MD-MB-231; assay: MTT cell viability assay in MD-MB-231 cells; assay type: cell-based; conditions: read-out: IC50 values of cell death
[16] = tested on: A549; assay: MTT cell viability assay in A549 cells; assay type: cell-based; conditions: Homo sapiens, read-out: IC50 values of cell death
[17] = tested on: SK-BR-3; assay: MTT cell viability assay in SK-BR-3 cells; assay type: cell-based; conditions: Homo sapiens, read-out: IC50 values of cell death
[18] = tested on: Colo-357; assay: MTT cell viability assay in Colo-357 pancreatic cancer cells; assay type: cell-based; conditions: Homo sapiens, COLO357; Colo-357 cells; read-out: IC50 values of cell death
[19] = tested on: PC cells; assay type: cell-based; conditions: DMI at clinically relevant concentrations
[20] = tested on: BxPC-3; assay: MTT cell viability assay in BxPC-3 pancreatic cancer cells; assay type: cell-based; conditions: Homo sapiens; BxPC-3 cells; read-out: IC50 values of cell death
[21] = tested on: HCT 116; assay: MTT cell viability assay in HCT 116 cells; assay type: cell-based; conditions: Homo sapiens, read-out: IC50 values of cell death
[22] = T47D cells, 48 h, 25 μM single agent, MTT

CC(=O)O[C@H]1C(=O)[C@@]2(C)[C@H]([C@H](OC(=O)c3ccccc3)[C@]3(O)C[C@H](OC(=O)[C@H](O)[C@@H](NC(=O)c4ccccc4)c4ccccc4)C(C)=C1C3(C)C)[C@]1(OC(C)=O)CO[C@@H]1C[C@@H]2O [taxol, Paclitaxel]
cell death ([1]; each compound used alone): ~15% | cell viability ([2]; 10 μM of either drug alone): ~80% | sensitivity of cells to taxol (in words) ([2]; T47D cells expressing γ-Syn): resistant to taxol treatment | cell viability [2, 22]: 52%

CNCCCN1c2ccccc2CCc2ccccc21 [DMI, desipramine]
depressive symptoms ([3]; WKY rat, chronic treatment for 2 weeks): relief in the depressive symptoms | mobility and climbing behaviors [3]: improvements in mobility and climbing behaviors | γ-Syn expression (in words) [4]: reduce γ-Syn expression | IC50 [5]: > 50 µM | cell death (in words) [6]: no cell death | γ-Syn levels (in words) ([7]; 10 μM and 50 μM): reduces γ-Syn levels | decrease of γ-Syn levels ([7]; 10 μM DMI): 40% | decrease of γ-Syn levels ([7]; 50 μM DMI): 85% | γ-Syn protein levels (Western blot) [8]: reduced levels of γ-Syn protein | γ-Syn protein levels (Western blot) ([8]; listed as desipramine): reduced | cell death ([1]; each compound used alone): ~15% | cell death ([1]; γ-Syn expressing cells, 50 μM DMI, MTT): > 90% | expression levels of γ-Syn [9]: reduces expression levels of γ-Syn | depressive state [10]: relieves their depressive state | IC50 [11]: > 50 µM | IC50 [12]: 38 µM | γ-Syn protein expression (in words) ([13]; 0-50 μM DMI): dose-dependent decrease in γ-Syn protein expression | γ-Syn protein expression decreased ([13]; 50 μM DMI): > 85% | IC50 [14]: 43 µM | IC50 [15]: > 50 µM | IC50 [16]: > 50 µM | cell viability ([2]; 10 μM of either drug alone): ~80% | cell viability [2, 22]: 58% | cell viability ([2]; T47D cells, 48 h, 50 μM DMI alone, MTT (data not shown)): ~5% | IC50 ([2]; read-out: IC50 values of cell death, T47D cells): 35 µM | IC50 [17]: 40 µM | IC50 [18]: > 50 µM | cell death [19]: > 60% | IC50 [20]: > 50 µM | IC50 [21]: 43 ± 3 µM

NNCCc1ccccc1 [phenelezine]
mobility and climbing behaviors [3]: improvements in mobility and climbing behaviors
